Source: PubChem BioAssay (NCI)
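Five compound concentrations were applied to cells in 96-well plates for 48 hours; endpoints were derived by simple linear interpolation of the resulting dose-response curve. Abbreviation: GI50, concentration required for 50% inhibition of growth. TGI is the concentration that stops growth completely.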 Where a SMILES comes first, the peptide text is derived from it. [ ]: non-standard residue; d: D form. The star is where a group is joined. dTle = CC(C)(C)[C@@H](N)C(=O)O; 4Abz = Nc1ccc(C(=O)O)cc1; NHOH = ON*

Columns and labels:
Test in all cases: inhibition of tumour cell growth, NCI panel, 48 h
OVCAR-8 ovarian = test system: OVCAR-8 ovarian
NCI-H460 lung = test system: NCI-H460 lung
SK-MEL-5 melanoma = test system: SK-MEL-5 melanoma
MDA-MB-435 = test system: MDA-MB-435
M14 melanoma = test system: M14 melanoma
IGROV1 ovarian = test system: IGROV1 ovarian
HOP-62 NSCLC = test system: HOP-62 NSCLC
HCT-15 colon = test system: HCT-15 colon
SR leukemia = test system: SR leukemia
CCRF-CEM leukemia = test system: CCRF-CEM leukemia

SMILES	GI50 (OVCAR-8 ovarian) [µM]	TGI (OVCAR-8 ovarian) [µM]	GI50 (NCI-H460 lung) [µM]	TGI (NCI-H460 lung) [µM]	GI50 (SK-MEL-5 melanoma) [µM]	TGI (SK-MEL-5 melanoma) [µM]	GI50 (MDA-MB-435) [µM]	TGI (MDA-MB-435) [µM]	GI50 (M14 melanoma) [µM]	TGI (M14 melanoma) [µM]	GI50 (IGROV1 ovarian) [µM]	TGI (IGROV1 ovarian) [µM]	GI50 (HOP-62 NSCLC) [µM]	TGI (HOP-62 NSCLC) [µM]	GI50 (HCT-15 colon) [µM]	TGI (HCT-15 colon) [µM]	GI50 (SR leukemia) [µM]	TGI (SR leukemia) [µM]	GI50 (CCRF-CEM leukemia) [µM]	TGI (CCRF-CEM leukemia) [µM]
NS(=O)(=O)CC1CC[CH-]CC1.[Cl-].[Cl-].[Cl-].[Cl-].[Cl-].[Sb+5].c1ccncc1	> 100	> 100	> 100	> 100	> 100	> 100	> 100	> 100	> 100	> 100	> 100	> 100	> 100	> 100	> 100	> 100	> 100	> 100		
O=C(/C=C/C12c3ccccc3C(c3ccccc31)C1C(=O)NC(=O)C12)c1ccc(F)cc1 (centres undefined)	1.86	4.84	2.04	5.05	1.72	3.16	2.44	6.41	1.92	3.96	2.09	5.9	2.63	7.4	1.66	4.2			2.45	8.42
O=C(CCn1[nH]c(=O)c(Cl)c(Cl)c1=O)NNC(=O)C[n+]1ccccc1		> 100		> 100		> 100				> 100		> 100		> 100		> 100				> 100
CC(C)(C)c1ccc(OCCOCCOc2ccc(C(C)(C)C)cc2S(=O)(=O)Nc2ccc([N+](=O)[O-])cc2)c(S(=O)(=O)Nc2ccc([N+](=O)[O-])cc2)c1		> 100		> 100		> 100				> 100		> 100		> 100		> 100				> 100
CCOC(=O)C1=C(C)N(Cc2ccc(Cl)cc2Cl)C2(O)C=CC(=O)C3=C(O)c4ccccc4C(=O)C312 (centres undefined)	7.17	91.2	5.55	43.2	7.38	23.3	3.87	13.4	3.97	69.3	8.62	> 100	3.56	15	1.82	13.5				
C[C@@H](NC(=O)[C@H](NC(=O)[C@@H]1CCCN1C(=O)CNC(=O)c1ccc(N)cc1)C(C)(C)C)C(=O)NO (H-[4Abz]GP[dTle][dA]-{NHOH})	> 100	> 100	> 100	> 100	> 100	> 100	> 100	> 100	> 100	> 100	> 100	> 100	> 100	> 100	> 100	> 100				
O=C(CC(=O)c1cccc2ccccc12)C(=O)NC1C2CC3CC(C2)CC1C3 (centres undefined)		> 100		> 100		> 100				> 100		> 100		> 100		> 100				> 100
CCc1cc(CCC(=O)Nc2ccccc2[N+](=O)[O-])[nH]c(=S)n1		> 100		> 100						> 100		> 100		> 100		> 100		> 100		> 100
COc1ccc2c3c(c(C(=O)c4ccccc4)oc13)CCC2		> 100		> 100		> 100				> 100		> 100		> 100		> 100				> 100
Cc1cccc(C(C)(C)C)c1NC(=O)CCc1nc(=S)[nH][nH]1		> 100		> 100		> 100				> 100		> 100		> 100		> 100				> 100
Nc1ccc(-c2cccs2)cc1NC(=O)c1ccc(CCCC(=O)Nc2ccc(C3CC3N)cc2)cc1 (centres undefined)	1.65	4.48			1.91	6.23	1.74	4			4.8	> 100			5.99	> 100				
N#Cc1c(N)nc(N2CCOCC2)c(C#N)c1-c1ccccn1	> 100	> 100	> 100	> 100	> 100	> 100	> 100	> 100	> 100	> 100	> 52.3	> 100	> 100	> 100	> 100	> 100			> 100	> 100
Cn1c(N)nc(=O)c2c1N(C1OC(CO)C(O)C1O)CN2Cc1ccccc1 (centres undefined)		> 100		> 100		> 100				> 100		> 100		> 100		> 100		> 100		
CC(=O)O[C@@]1(C)[C@@H](C)C(=O)O[C@@H]2CCN3CC=C(COC(=O)[C@]1(C)O)[C@H]23		> 100		> 100		> 100				> 100		> 100		> 100		> 100		> 100		> 100
CC(=O)[CH-]C(=O)c1ccccc1.CC(=O)[CH-]C(=O)c1ccccc1.Cc1cc([O-])ccc1Cl.Cc1cc([O-])ccc1Cl.[Ti+4]	16.8	59.1	22.6	> 100	19.3	44.9			23.1	52.5	26.9	> 100	19.5	70.9	25.6	> 100			8.45	42.3
CSc1snc2sc3c(Cl)nnnc3c12		21		32.8		30.7				26.3		37.3		31.9		24.9				11
O=C(O/N=C1/CCC/C1=C\c1ccccc1)c1ccc(Cl)c(Cl)c1		> 100		> 100		> 100				> 100		> 100		> 100		> 100		> 100		> 100
C=C1CC2CC(O)CC(C1)C2 (centres undefined)		> 100		> 100		> 100				> 100		> 100		> 100				> 100		
O=C1C2C(C(=O)N1c1ccccc1)C1([N+](=O)[O-])C=C3c4ccccc4N(C(=O)c4ccccc4)C32C2C(=O)N(c3ccccc3)C(=O)C21 (centres undefined)		> 100		> 100						> 100		> 100		> 100		> 100		> 100		> 100
